These results are taken from a melting point compilation (Tetko et al.; mined from patent text by program, amines drawn as free bases though some values may be those of a salt).

Each structure is given as a SMILES string.

Take `O=C(O)CCCSc1ccccc1O`: the melting point (commonly the temperature of the solid-liquid transition) was 77 to 78 °C.

In the case of `C=Cn1nc(-c2c(-c3ccccc3)nn3ccccc23)ccc1=O`, the melting point was 188 °C. Turning to `O=C(c1ccco1)c1cnn2c(-c3cccnc3)ccnc12`, the melting point is 228 to 229 °C. As to `Cc1nc(N2CCN(C)CC2)nc(N)c1-c1cc(Cl)cc(Cl)c1`, the melting point was in the range of 164 to 166 °C. As for `O=C(c1cccnc1)N1N=CCC1c1ccco1` (stereo unspecified), the melting point fell in the range of 91 to 93 °C.

In the case of `Cc1noc(C2CC2)c1I`, the melting point is 71 °C.

`O=c1[nH]c2ccc(Br)cc2c(=O)n1CCS` came in with a melting point of 334 to 336 °C. The value for `Cc1cccc(NCC(=O)Nc2ccc(S(N)(=O)=O)cc2Cl)c1` was 185 to 189 °C; that for `COc1ccc(-c2c(C)ncc(C#N)c2Nc2cccc3[nH]ccc23)cc1OC` was 182 to 183 °C; that for `CC(C)Oc1cc(CCC(=O)NS(=O)(=O)CCCc2ccccc2)n(Cc2ccc(Cl)cc2Cl)n1` was 132 to 134 °C. With `CC(C)OC(=O)Nc1cccc(-c2ccnc3c(C(=O)C4CCCC4)cnn23)c1` the figure was 57 to 59 °C.

`Oc1ccc2cc(COC=C3C4CC5CC(C4)CC3C5)ccc2c1` displayed a melting point of 133 to 140 °C. The value for `COc1cc(CC(=O)NCCOc2ccc(C(=O)O)cc2OC)ccc1NC(=O)Nc1ccccc1C` was 180 to 181 °C; that for `COC(=O)c1ccc(C2=NOC(P(=O)(OC)OC)C2)cc1` (stereo unspecified) was 93 °C; that for `CS(=O)(=O)c1ccc(C(=O)O)c(Cl)c1CC#N` was 169 to 172 °C.

Turning to `CCn1cc(C(=O)O)c(=O)c2cc(F)c(N3CCCC(O)C3)c(F)c21` (stereo unspecified), the melting point lay within 232 to 234 °C. The value for `CC(=O)c1ccc2c(c1)C(C)(C)c1cccnc1O2` was 106 to 108 °C. Consider `CN(C)CC(=O)N1Cc2cccc3c2N(CC3)c2ccccc21`, for which the melting point is 104 to 107 °C. The value for `CCOC(=O)C1=C(COCCO)Nc2ccnc(OC(C)C)c2C1c1ccccc1C(F)(F)F` (stereo unspecified) was 109 to 112 °C.

For `CN1C(=O)CC[C@]2(C)c3ccc(-c4ncccn4)cc3CC[C@@H]12`, the melting point fell in the range of 160 to 162 °C. The value for `CCC(CC)c1nc(-c2ccncc2)c(-c2ccc(Cl)cc2)n1C` was 100 to 102 °C; that for `C=CCNC(=O)Nc1nc2nc(NCCCN3CCN(C)CC3)ncc2cc1-c1c(Cl)cccc1Cl` was 104 to 108 °C; that for `Cc1ccc(S(=O)(=O)NC(=O)C(C)(N)C(C)C)cc1` (stereo unspecified) was 262 to 265 °C.

`CCOC(=O)N1CCC(NC(=O)c2ccc(Cl)cc2Cl)C12CCCCC2` (stereo unspecified) gave a melting point of 143 to 144 °C.

`O=C1c2cccc3cccc(c23)C(=O)N1CCCCBr`: the melting point is 113 to 115 °C. With `CCC(C(=O)O)c1ccc(C(=O)c2ccc(Cl)cc2)n1C` (stereo unspecified) the figure was 108 to 112 °C; with `N=C(NO)c1ncn2c(C(F)(F)F)cc(-c3ccc(C(F)(F)F)cc3)nc12`, 213 °C. For `Cc1ccc(NC(=O)Nc2ccc(-c3c(Cc4cccnc4)sc4ncnc(N)c34)cc2)cc1`, the melting point fell in the range of 220 to 223 °C.

In turn, `Cc1n[nH]c2ccc(-c3nn(C(C)c4oc5ccccc5c(=O)c4-c4cccc(F)c4)c4ncnc(N)c34)cc12` (stereo unspecified) had a melting point of 254 to 256 °C. `FC(F)(F)C(F)(F)Cc1ccc(CBr)cc1`: the melting point is 62 to 63 °C. The molecule `CCN(c1ccc(C)cc1)c1cc(NC)nc(C)n1` displayed a melting point of 140 to 143 °C. With `CCc1nn(C2CN(C(C)C)C2)c(C(N)=O)c1N` the figure was 150 to 156 °C; with `NCCNc1cc(NCCO)c(Cl)cc1[N+](=O)[O-]`, 160 °C.

In the case of `O=C(c1ccccc1)c1ccc2cc[nH]c2n1`, the melting point stood at 174 °C. The value for `COc1cc2c(c(O)c1OC)C(Cc1ccc(F)cc1)NCC2` (stereo unspecified) was 195 to 200 °C; that for `Cc1cc2c(cc1C(F)(F)F)N(c1ccc(C(=O)O)cc1)CCC[C@@H]2N(Cc1cc(C(F)(F)F)cc(C(F)(F)F)c1)c1nnn(C)n1` was 101 to 105 °C; that for `CC(=O)Nc1c(OCc2ccccc2)cc(Br)cc1N(C)C` was 177 °C. With `Cn1nccc1C(=O)c1cc(O)c(O)c(Cl)c1Cl` the figure was 202 to 204 °C.

Take `CC(=O)OC1C(CO)OC(c2ccc(Cl)c(Cc3ccc(-c4ccccc4)s3)c2)C(OC(C)=O)C1OC(C)=O` (stereo unspecified): the melting point is 166 to 168 °C. Turning to `CC1(CCl)Oc2ccc([N+](=O)[O-])cc2O1` (stereo unspecified), the melting point lay in the range of 72 to 73 °C. The value for `Cc1ccc(-c2ccc(C(=O)Nc3ccc4cc(CN5CCCC5)cnc4c3C)cc2F)cc1` was 193 to 194 °C; that for `NNC(=O)CCCSc1nccc(NC(N)=NCC(F)(F)F)n1` was 192 to 195 °C; that for `COc1cccc(NCc2sccc2S(=O)(=O)Nc2onc(C)c2Br)c1` was 70 to 73 °C. The value for `CCOC(=O)C(=CNc1ccc(F)cc1)C(=O)c1ccc(Cl)cc1Cl` was 108 to 111 °C; that for `Clc1cccnc1-c1ccc2[nH]nc(Nc3ccccn3)c2c1` was 164 °C; that for `CN=C(N)Nc1nc(-c2cccc(C(=O)NCCN)c2)cs1` was 214 to 216 °C.

For `COc1cccc(-c2ccc3c(c2)C(C)(C(F)(F)F)OC(=O)N3)c1` (stereo unspecified), the melting point was in the range of 178 to 179 °C.

Regarding `COC(=O)C(NS(=O)(=O)c1ccc(-c2ccc(NC(=O)c3cc4c(OC(C)C)cccc4o3)cc2)cc1)C(C)C` (stereo unspecified), the melting point was in the range of 226 to 229 °C. For `CCOC(=O)c1cn(Cc2ccccc2)nc1OCc1ccc(OCc2nc(-c3ccco3)oc2C)c(OCOC)c1`, the melting point is 120 to 121 °C. The value for `COC(=O)[C@@H]1CSCN1S(=O)(=O)c1ccc(Cl)c(COc2cccc3c(-n4ccnc4)cc(C)nc23)c1Cl` was 60 °C. The value for `COc1ccc(C=CC(=O)N2CCN(c3nc(N)c4cc(OC)c(OC)cc4n3)CC2)cc1OC` was 140 °C; that for `COc1cc(-c2ncn(C3CC3)c2-c2ccc(C(F)(F)F)cc2)cc(OC)c1OC` was 125 to 130 °C. Regarding `CCC(CC)NCc1cnc2c(C)c(NC(=O)c3ccc(OC[C@@H]4CCCO4)cc3)ccc2c1`, the melting point lay within 113 to 115 °C. With `CC(C)(C)c1nnc(N)n(N)c1=O` the figure was 223 to 224 °C; with `CN(C)C=Nc1c(Cl)cc(N=Cc2cccc(Br)c2)cc1Cl`, 136 to 138 °C; with `Cc1cc(Cn2nc(C(F)(F)F)cc2C(F)(F)F)ccc1NC(=O)c1cccc(Cl)c1C(=O)NC(C)(C)C(=O)O`, 179 to 184 °C. Molecule `CNc1cc(NS(=O)(=O)c2ccc(N)cc2)nc(N2CCCC2)n1` registered a melting point of 299 to 301 °C. For the molecule `COc1nc(I)cc(C(O)C(C)(C)C)c1C` (stereo unspecified), the melting point lay in the range of 64 to 65 °C. The value for `CC=C1CCC2C3CCC4CC(O)CCC4(C)C3C(=NO)CC12C` (stereo unspecified) was 233 to 235 °C; that for `O=C(O)c1cccc(-c2nc3cc(N4CCCC4)ccc3o2)c1` was 248 to 250 °C. The molecule `Cc1ccc(C2SC3(CCN(CCCC(=O)c4ccc(F)cc4)CC3)c3ccccc32)cc1` (stereo unspecified) came in with a melting point of 134 to 135 °C. The value for `COC(=O)[C@H](Cc1ccc(NC(=O)c2c(Cl)cccc2Cl)cc1)NC(=O)C1(Cc2ccc(OC)cc2)CCCCC1` was 85 to 87 °C; that for `CCCCC(CCCC)C(=O)O[C@H]1C[C@H](O)C=C2C=C[C@H](C)[C@H](CC[C@@H]3C[C@@H](O)CC(=O)O3)[C@H]21` was 143 to 145 °C; that for `Nc1ccc(C(=O)Nc2ccccc2C(c2ccc(O)cc2)c2ccc(O)cc2)cc1` was 158 to 161 °C. In turn, `O=C(Nc1ccccc1)c1cccc([N+](=O)[O-])c1C(=O)Nc1ccccc1` returned a melting point of 139 to 141 °C. With `CC(=O)C1=CCC2C3CCC4CC(OS(=O)(=O)c5ccc(C)cc5)CCC4(C)C3CCC12C` (stereo unspecified) the figure was 146 to 148 °C; with `CCOC(=O)C=Cc1ccc(-c2ccccc2)cc1`, 88.6 °C. On to `NC(CCCCNC(=O)OCc1ccccc1)C(=O)NC1c2ccccc2-c2ccccc21` (stereo unspecified), for which the melting point was above 280 °C. With `Cc1c(-c2ccccc2)oc2c(CS(=O)(=O)CCCl)cccc2c1=O` the figure was 158 to 161 °C; with `Cc1cc(Oc2c(Cl)cc(C(F)(F)F)cc2Cl)nn1C(=O)NCC=O`, 111 to 113 °C; with `CN(C)c1ccccc1CC(=O)N1C[C@@H]2SCCC(c3ccccc3)(c3ccccc3)[C@@H]2C1` (racemic), 163 °C.

Regarding `CCCC[C@H]1CC[C@H](c2ccc(CCc3ccc(OC(F)F)cc3)cc2)CC1`, the melting point amounted to 32 °C. The molecule `O=C(Oc1ccccc1)N1CCC2(CC1)SC(c1ccc(F)cc1)c1ccccc12` (stereo unspecified) registered a melting point of 200 to 201 °C. Consider `O=c1[nH][nH]c(=O)c2c(O)c(-c3ccccc3)ncc12`, for which the melting point was above 300 °C. In turn, `CC(C(=O)NC(=O)OCC(F)(F)F)(c1ccccc1)c1ccccc1` returned a melting point of 143 to 145 °C. The value for `COC(=O)C1Cc2c(n(C)c3ccccc23)CN1C(=S)SC` (stereo unspecified) was 170 to 171 °C; that for `CC1(C)CC(=O)c2c(nc(C3CCCC3)c(C(=O)c3ccc(C(F)(F)F)cc3)c2-c2ccc(F)c(F)c2)C1` was 210 to 212 °C. The value for `CCn1cc(C)c(NS(=O)(=O)c2ccc(NC(C)=O)cc2)nc1=O` was 235 to 239 °C; that for `CCCc1c(OCCCSc2nc3ccccc3[nH]2)ccc(C(C)=O)c1O` was 149 to 150 °C; that for `O=C(O[C@@H]1CC[C@H]1Br)c1ccccc1` (relative stereo) was 38 to 40 °C. With `CCOC(=O)/C=C1\CCOc2ccc([N+](=O)[O-])cc21` the figure was 135 °C; with `COc1cccc(Cl)c1CC(=O)O`, 164 to 165 °C; with `CCOC(=O)c1cn(CC)c2c(C)c(F)c(F)cc2c1=O`, 177 to 180 °C.

In turn, `Cc1oc(-c2ccco2)nc1COc1ccc(COc2nn(Cc3ccccc3)cc2C=O)cc1OCc1ccccc1` came in with a melting point of 130 to 131 °C.

`Nc1c(Cl)cc(C(O)CNCCCCCOCCCc2ccc(C(=O)O)o2)cc1Cl` (stereo unspecified) yielded a melting point of 89 to 91 °C. With `CN1CCN(c2ccnc3c(NC(=O)c4c(Cl)cccc4Cl)cc(F)cc23)C1=O` the figure was 268 to 272 °C.
